The record followed here is PubChem BioAssay AID179 (DTP/NCI, 2004).

Each structure is given as a SMILES string. The source made the active and inactive calls.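 The calls were made as follows: active = compounds giving half or more protection of infected cells from virus-caused growth loss, again on retest; inactive = the rest.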 Some results are limits rather than exact numbers.

The test deals with CEM cells HIV-1 protection, formazan growth assay. In words: NCI AIDS Antiviral Assay. Particulars: for IC50: measured here: growth of uninfected CEM cells. The method in brief:
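Five concentrations of each compound were applied to infected and uninfected human CEM cells. Protection from HIV-1 was judged from growth measured with a soluble formazan assay.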

For orientation: EC50 means the concentration that produces a half-maximal response. In general, IC50 refers to the concentration at which inhibition is half-maximal. The low end stands for inhibition by little substance, the high end for a need for much substance. As to `CCOC(=O)C1C(=O)c2cccc(OC)c2C2COC(=O)N12` (stereo not given), the EC50 was over 251 µM and the IC50 was 229 µM.

On to `ClCc1c(-c2ccccc2)nn(-c2ccccc2)c1CCl`, for which the EC50 was over 200 µM and the IC50 worked out at 6.17 µM.

For the molecule `CCCN(CCc1ccc(-c2ccccc2)cc1)CCc1ccc2n[nH]nc2c1`, the EC50 is over 200 µM and the concentration for half-maximal inhibition (IC50) is 10 µM.

As for `CC(CCC#CC(=O)O)OC1CCCCO1` (stereo not given), the EC50 is over 200 µM and the IC50 was over 200 µM.

As to `O=C1[C@H]2ON(c3ccccc3)C(c3ccccc3F)[C@H]2C(=O)N1c1ccc(Cc2ccc(N3C(=O)[C@@H]4ON(c5ccccc5)C(c5ccccc5F)[C@@H]4C3=O)cc2)cc1` (stereo not given in full), the EC50 is over 9.12 µM and the IC50 was over 9.12 µM.

In the case of `Nc1nc2c(ncn2Cc2ccccc2CCO)c(=O)[nH]1`, the EC50 was over 47.9 µM and the IC50 was over 47.9 µM.

Regarding `O=C(c1ccccc1)C1C[C@H]2CO[C@H](c3ccccc3)N2C1=O` (stereo not given in full), the EC50 is over 200 µM and the IC50 was determined as 69.2 µM.

Take `Cc1cc(N=Nc2ccc([N+](=O)[O-])cc2)c(NCC(O)C(O)C(O)CO)cc1C` (stereo not given): the EC50 was over 200 µM and the IC50 is 34.7 µM.

Molecule `C[C@@H](NC(=O)c1ccccc1SC(=O)OCCCCCl)C(N)=O` came in with a 50% effective concentration (EC50) of 2.4 µM and a half-inhibitory concentration (IC50) of 195 µM.

Regarding `NCCCNCCSSCc1ccccc1CSSCCNCCCN`, the outcome was inactive.

`Cc1oc(-c2cccc(F)c2)nc1C(N)=O` displayed an EC50 of over 200 µM and a half-inhibitory concentration (IC50) of over 200 µM.

For the molecule `CC(=O)ON1C(c2ccc([N+](=O)[O-])cc2)OCC2OC(n3cc(C)c(=O)[nH]c3=O)C[C@H]21` (stereo not given in full), the EC50 is over 200 µM and the IC50 is over 200 µM.

As for `CCOC(=O)c1[nH]c2nc(SC)nc(Nc3ccccc3Cl)c2c1N`, the EC50 was over 200 µM and the concentration for half-maximal inhibition (IC50) was found to be 126 µM.

For the molecule `CS(=O)(=O)N1CC(CCl)c2ccc(NO)cc21` (stereo not given), the EC50 was over 200 µM and the IC50 worked out at 3.72 µM.

Take `CC1CC(=O)Nc2ccc(N=NN(C)C)cc2N1C=O` (stereo not given): the EC50 is over 200 µM and the IC50 was over 200 µM.

For `CC(=O)OCC1OC(Nc2cc(=O)n(C)c(=O)[nH]2)C(OC(C)=O)C(OC(C)=O)C1OC(C)=O` (stereo not given), the outcome was inactive.

`CC1C(O)O[C@@H]2O[C@@]3(C)CC[C@H]4[C@H](C)CC[C@@H]1[C@@]24O3` (stereo not given in full): the EC50 is over 200 µM and the IC50 is over 200 µM.

With `CCOC(=O)c1ccc(CS(=O)(=O)c2ccc(Cl)cc2)c([N+](=O)[O-])c1`, the EC50 was over 49 µM and the IC50 is over 49 µM.

On to `COCc1cn(C2CCC(CO)O2)c(=O)nc1N` (stereo not given), for which the EC50 was over 490 µM and the IC50 is over 490 µM.

On to `C[C@]12CCCC(=O)C1C[C@H](C(=O)O)CC2` (stereo not given in full), for which the result was inactive.

Turning to `CN(C)Cc1cc(C(=O)/C=C/c2cccc(Cl)c2)cc(CN(C)C)c1O`, the result was inactive.

As to `COc1ccc([C@]23CCN(S(=O)(=O)c4ccc(C)cc4)[C@H]2[C@H](CO)C2(CC3)OCC(C)(C)CO2)cc1OC`, the EC50 was over 100 µM and the IC50 was found to be 87.1 µM.

As for `COC(=O)c1ccc(CSc2ccc(OC)cc2)cc1`, the result was inactive.

For the molecule `COc1ccccc1C1(c2c(OC(C)C)c(=O)c2=O)SCCCS1`, the EC50 was over 200 µM and the half-inhibitory concentration (IC50) stood at 138 µM.

For the molecule `C[C@H](NC1=CC(=O)C(N[C@@H](C)[C@H](O)c2ccccc2)=CC1=O)[C@H](O)c1ccccc1`, the EC50 was over 200 µM and the half-maximal inhibitory concentration (IC50) turned out to be 141 µM.

For `NC(=S)NNC(=O)CCC(=O)Nc1ccccc1Cl`, the outcome was inactive.

For the molecule `C/C=C1/C=CC2c3[nH]c4ccccc4c3CCN2C1` (stereo not given), the EC50 is over 145 µM and the half-inhibitory concentration (IC50) came to 93.3 µM.

For the molecule `Cn1c2c(c3nc(N)nc(N)c3c1=O)CCc1ccccc1-2`, the EC50 was over 200 µM and the IC50 was 12.9 µM.

Regarding `Cc1ccc(S(=O)(=O)N(CCN)c2cc3c4c(c2)Oc2cccc5c2C4c2c(cccc2O3)O5)cc1`, the EC50 is over 200 µM and the 50% inhibitory concentration (IC50) was determined as 35.5 µM.

For the molecule `O=C(CCc1ccccc1)On1nnc2ccccc2c1=O`, the result was inactive.

For `O=C(O)c1nc2cc(Cl)ccc2[nH]c1=O`, the EC50 was over 200 µM and the half-inhibitory concentration (IC50) is over 200 µM.

`CC1(C)CC(=O)C(/C=N/C(=S)NCCc2ccccc2)=C(O)C1`: the EC50 was over 200 µM and the IC50 was over 200 µM.

`Nc1cccc(P(N)(N)=O)c1`: the EC50 was over 200 µM and the IC50 was over 200 µM.

Regarding `O=[N+]([O-])c1ccc(C(Cl)C(Cl)c2ccc(C(Cl)C(Cl)c3ccc([N+](=O)[O-])cc3[N+](=O)[O-])cc2)c([N+](=O)[O-])c1` (stereo not given), the EC50 is over 12 µM and the 50% inhibitory concentration (IC50) came to 5.13 µM.

As for `c1ccc(C2=NN(c3ccccc3)C3(S2)SC(c2ccccc2)(c2ccccc2)c2ccccc23)cc1` (stereo not given), the EC50 was over 50.1 µM and the IC50 was over 50.1 µM.

In the case of `O=C(O)C[C@@H](Cl)[C@H](NC(=O)OCc1ccccc1)C(=O)O`, the outcome was inactive.

In the case of `COc1cccc(C2c3cc4c(cc3OC(N3CCCCC3)C2C)OCO4)c1O` (stereo not given), the EC50 was over 200 µM and the concentration for half-maximal inhibition (IC50) is 3.02 µM.

Take `O=C1C2CCCC1C1/C(=[N+](/[O-])O)C=C([N+](=O)[O-])C2C1[N+](=O)[O-]` (stereo not given): the EC50 is over 234 µM and the IC50 is over 234 µM.

`COc1cc2c(cc1OC)C(=O)/C(=C/c1ccc(O)cc1)CC2`: the outcome was inactive.

Turning to `COC(=O)c1cc(C(=CCCBr)c2cc(Cl)c(OC)c(C(=O)OC)c2)cc(Cl)c1OC`, the concentration for a half-maximal effect (EC50) is 16.6 µM and the 50% inhibitory concentration (IC50) worked out at 21.9 µM.

Regarding `Cc1[nH]nc2c(N(C)C)ncnc12`, the EC50 is over 200 µM and the IC50 came to 170 µM.

As to `NC(=O)c1ncn(C2OC(CO)C(O)C2O)c1NC(=S)NC(=O)c1ccccc1` (stereo not given), the EC50 was over 589 µM and the half-maximal inhibitory concentration (IC50) is over 589 µM.

On to `CC1=NN(c2ccccc2)C(=O)/C1=C1\SC(c2ccccc2)(c2ccccc2)c2ccccc21`, for which the EC50 is over 200 µM and the half-maximal inhibitory concentration (IC50) was over 200 µM.

On to `O=C1N[C@H](C(=O)O)[C@@H](c2ccc(OCc3ccccc3)cc2)O1`, for which the EC50 was over 200 µM and the IC50 is over 200 µM.

Turning to `CCOC(=O)/N=C(\N)SCc1ccccc1`, the outcome was inactive.

For the molecule `CC(=O)NNC(=S)/N=C\c1c(O)c2ccccc2oc1=O`, the outcome was inactive.

As for `O=[N+]([O-])c1ccccc1/C=C/c1ccccn1`, the EC50 was over 16.6 µM and the half-maximal inhibitory concentration (IC50) was over 16.6 µM.

In the case of `COC1=NCN=C2SC=C(N)N=C12`, the EC50 was over 1070 µM and the half-maximal inhibitory concentration (IC50) was 562 µM.

As for `COC(=O)C1CC(Sc2ccccc2)C(=O)C(C(=O)OC)C1` (stereo not given), the EC50 was over 112 µM and the half-inhibitory concentration (IC50) was 77.6 µM.

As to `COc1cccc(OC)c1C(=O)OCc1ccccc1`, the EC50 is over 95.5 µM and the IC50 is over 95.5 µM.

For the molecule `Nc1nn2cc3c(nc2c1N=Nc1ccc(Cl)cc1)CCCCC3`, the EC50 was over 151 µM and the IC50 was over 151 µM.

For the molecule `OCC1OC(n2cnc(C3=NCC(O)CN3)n2)C(O)C1O` (stereo not given), the result was inactive.

`Cc1cccc(-n2nc3c(=O)n(C)c(=O)n(C)c3nc2=O)c1`: the EC50 was over 200 µM and the IC50 is over 200 µM.

Turning to `O=C1OC(=O)c2c1cc1cc3c(cc1c2-c1ccc2c(c1)OCO2)OCO3`, the outcome was inactive.

Take `COc1ccc2c(c1)CCN1CCCc3ccc(OC)cc3C21` (stereo not given): the EC50 is over 200 µM and the concentration for half-maximal inhibition (IC50) is 51.3 µM.

With `CN1N=C(c2ccccc2)c2cc(Cl)ccc2N=C1N/N=C/c1ccc(N(C)C)cc1`, the EC50 was over 200 µM and the IC50 is over 200 µM.

In the case of `CC1OC([C@]2(C)O[C@@H]([C@@]3(C)OC=CC3=O)CC2=O)CC1=O` (stereo not given in full), the outcome was inactive.

With `Cc1ccc(S(=O)(=O)N2CCCCN(S(=O)(=O)c3ccc(C)cc3)Cc3ccccc3OCCOCCOc3c4cccc3Cc3cccc5c3OCCOCCOc3ccccc3CN(S(=O)(=O)c3ccc(C)cc3)CCCN(S(=O)(=O)c3ccc(C)cc3)Cc3ccccc3OCCOCCOc3c(cccc3C4)Cc3cccc(c3OCCOCCOc3ccccc3C2)C5)cc1`, the EC50 is over 100 µM and the IC50 is over 100 µM.

In the case of `Cc1cc[n+](CC(=O)CC([O-])(C(F)(F)F)C(F)(F)F)cc1`, the EC50 is over 200 µM and the IC50 was over 200 µM.

As for `O=C(Nc1ccccc1)c1cc(S(=O)(=O)N2CCNNC2=O)c(S)cc1Cl`, the 50% effective concentration (EC50) is 10.2 µM and the IC50 amounted to 166 µM.

Take `CCOC(=O)/C(C#N)=C\C=C1/C=CNC2=NCCN21`: the EC50 is 19.5 µM and the IC50 was determined as 24.5 µM.

`Cc1cc2c(C(C)C)c(O)c(O)c(C=NCc3ccoc3)c2c(O)c1-c1c(C)cc2c(C(C)C)c(O)c(O)c(C=NCc3ccco3)c2c1O`: the EC50 is over 200 µM and the IC50 came out at 10 µM.

`O=C1c2ccccc2-c2nnsc21`: the EC50 is over 191 µM and the IC50 was 141 µM.

Take `CCOC(=O)CSc1nc(-c2ccc(OC)cc2)c(C#N)c(=O)[nH]1`: the EC50 is over 200 µM and the half-inhibitory concentration (IC50) worked out at 97.7 µM.

As to `O=c1oc2c3ccc4ccccc4c3n(Cc3nc4ccccc4[nH]3)c2c2ccccc12`, the EC50 is over 8.32 µM and the half-maximal inhibitory concentration (IC50) turned out to be 4.68 µM.

On to `Nc1c(N2CCOCC2)c(=O)nc2[nH]/c(=C\c3ccccc3O)c(=O)n12`, for which the EC50 was over 200 µM and the IC50 is 97.7 µM.

In the case of `CN(C)c1ccc(/C=C/C(=O)/C=C/c2ccc(N(C)C)cc2)cc1`, the EC50 was over 4.27 µM and the 50% inhibitory concentration (IC50) is over 4.27 µM.

For `Nc1nc(Cl)c(Cl)nc1C(=O)O`, the EC50 is over 200 µM and the half-maximal inhibitory concentration (IC50) is 117 µM.

For the molecule `Cc1nc2cccc([N+](=O)[O-])c2c(NCCCN(C)C)c1C`, the EC50 is over 200 µM and the IC50 amounted to 40.7 µM.

As to `O=S(O)c1cc(Cl)cc(Cl)c1OCc1ccccc1`, the result was inactive.

Turning to `CC1=NNC(=O)C1C(C/C(=N/O)c1c[nH]c2ccccc12)C(=O)O` (stereo not given), the EC50 was over 100 µM and the IC50 was over 100 µM.

As to `O=C1O[C@@H](c2ccccc2)C[C@H]1CN1CCOCC1`, the result was inactive.

For `NC(=O)NNc1nc(-c2ccccc2)cs1`, the EC50 was over 200 µM and the IC50 amounted to 87.1 µM.
